Read-outs that look alike come from different tables or passages of the source. Marks after values point to notes of the source that are not given here.
Tests used:
[1] = target: T1, human recombinant aldose reductase (HRAR) (Homo sapiens, UniProt P15121); assay: Enzyme kinetics of HRAR inhibition (Lineweaver-Burk and Dixon plots); format: biochemical; conditions: for HRAR Mode of Inhibition: Lineweaver-Burk plot
T1 construct: purchased Wako Chemicals (Osaka, Japan)
Description: (§1) Enzyme inhibition with different concentrations ([…]) was assessed by monitoring the effects of different concentrations of the substrate. The following concentrations of test ginsenosides were used in the RLAR kinetics analysis: 0, 2, 10, and 50 µM for protopanaxadiol; 0, 0.5, 2.5, and 10 µM for (20S) ginsenoside Rg3; 0, 0.5, 2.5, and 10 µM for (20R) ginsenoside Rg3; 0, 0.1, 0.5, and 2.5 µM for ginsenoside Rh2; 0, 2, 10, and 50 µM for protopanaxatriol; 0, 0.8, 4, and 20 µM for ginsenoside Rf; 0, 0.8, 4, and 20 µM for (20S) ginsenoside Rg2, and 0, 0.5, 2.5, and 10 µM for ginsenoside Rh1. Using Lineweaver-Burk double reciprocal plots, the inhibition type was determined using various concentrations of DL-glyceraldehyde (5, 10, and 20 mM) for HRAR as a substrate in the presence of different concentrations of the active test ginsenosides. The concentrations of test ginsenosides in the HRAR kinetics analysis were as follows: 0, 0.1, 0.5, and 2.5 µM for protopanaxadiol; 0, 0.5, 2, and 10 µM for (20S) ginsenoside Rg3; 0, 1, 5, and 20 µM for (20R) ginsenoside Rg3; 0, 0.5, 2.5, and 10 µM for ginsenoside Rh2; 0, 0.1, 0.5, and 2.5 µM for compound K; 0, 1, 5, and 10 µM for protopanaxatriol; 0, 0.5, 4, and 20 µM for (20R) ginsenoside Rg2, and 0, 0.2, 2, and 5 µM for ginsenoside Rh1. The Dixon plot is a graphical method [1/enzyme velocity (1/V)] against inhibitor concentration [I] used to determine the type of enzyme inhibition; it was used to identify the dissociation or inhibition constant (Ki) for the enzyme-inhibitor complex. Dixon plots (single reciprocal plots) for RLAR and HRAR inhibition were obtained in the presence of 100, 50, and 10 mM RLAR, and 20, 10, and 5 mM HRAR DL-glyceraldehyde substrate. Thus, the type of enzyme inhibition was determined by interpreting the Lineweaver-Burk plots, and the inhibition constants (Ki) were determined by interpreting the Dixon plots.

[2] = target: T1, human recombinant aldose reductase (HRAR); assay: HRAR inhibition assay (DL-glyceraldehyde substrate); format: biochemical
Description: HRAR inhibition was studied according to Nishimura et al.. AR action was studied by measuring the reduction in NADPH absorption at 340 nm over a period of 1 min on a UV/visible spectrophotometer (Ultrospec®2100pro, Biochrom, Holliston, MA, USA). For HRAR inhibition, the HRAR enzyme (0.4 units), was used in all enzyme inhibition evaluations. […] The inhibition percentage (%) was measured as designated in the RLAR assay. The DA sample/min value characterizes the decrease in absorbance for 1 min with the test samples and substrate. The ability of each sample to inhibit HRAR was observed as an IC50 value (µM) and measured from the log-dose inhibition curve.

[3] = target: T2, rat lens aldose reductase (RLAR) (Rattus norvegicus, UniProt P07943); assay: RLAR inhibitory activity assay (rat lens homogenate, DL-glyceraldehyde substrate); format: biochemical
T2 construct: from tissue; host or cells: lens of Sprague-Dawley rats (supernatant of homogenate)
Description: A rat lens homogenate was prepared with minor modifications according to the method reported by Hayman et al.. Briefly, the lenses were removed from the eyes of Sprague-Dawley rats weighing 250–280 g. They were homogenized in sodium phosphate buffer (pH 6.2) that was prepared with dibasic sodium phosphate (Na2HPO4∙H2O, 0.66 g) and monobasic sodium phosphate (NaH2PO4∙H2O, 1.27 g) in 100 mL of double-distilled H2O. The homogenate was clarified by centrifugation at 10,000 rpm at 4 °C for 20 min and the resultant supernatant was frozen until use. A crude AR homogenate with a specific activity of 6.5 U/mg was used in all enzyme inhibition evaluations. The reaction solution consisted of 620 µL of 100 mM sodium phosphate buffer (pH 6.2), 90 µL of AR homogenate, 90 µL of 1.6 mM NADPH, and 9 µL of sample, while the substrate included 90 µL of 50 mM DL-glyceraldehyde. […] AR activity was determined by measuring the decrease in NADPH absorption at 340 nm over a 4 min period on an Ultrospec®2100pro UV/Visible spectrophotometer. SWIFT II Applications software (Amersham Biosciences, NJ, USA) was used for all data analyses. The inhibition percentage (%) was calculated as follows in Equation (1):[1 − (∆Asample/min − ∆Ablank/min)/(∆Acontrol/min − ∆Ablank/min)] × 100(1) in which ∆Asample/min represents the test sample and substrate’s reduction in absorbance over 4 min, and ∆A control/min represents the same reduction in absorbance, but with 100% DMSO (dimethyl sulfoxide) rather than the test sample.

[4] = system: sorbitol accumulation in rat lens; assay: Lens culture and intracellular sorbitol measurement (ex vivo); format: cell-based, Sprague-Dawley rats; conditions: 25 mM glucose, 6 days, sample 5 μg/mL, mean ± SD (n = 3); for inhibition at 5 µg/mL: 144 h
[5] = target: T2, rat lens aldose reductase (RLAR); assay: Enzyme kinetics of RLAR inhibition (Lineweaver-Burk and Dixon plots); format: biochemical; conditions: for RLAR Mode of Inhibition: Lineweaver-Burk plot
Description: as §1

[6] = Dixon plots, single inhibition constant, read-out: HRAR Ki
[7] = substrate DL-glyceraldehyde, mean ± S.E.M. of triplicate experiments, read-out: HRAR IC50
[8] = rat lens homogenate, substrate DL-glyceraldehyde, mean ± S.E.M. of triplicate experiments, read-out: RLAR IC50

Row | Compound | HRAR Mode of Inhibition [1] | IC50 [2, 7] [µM] | IC50 [3, 8] [µM] | Sorbitol Content (mg)/Lens Wet Weight (g) [4] | HRAR Kiu (binding constant of inhibitor with enzyme-substrate complex) ([1]; Dixon plots) [µM] | RLAR Mode of Inhibition [5] | inhibition at 5 µg/mL ([4]; Rattus norvegicus) [%] | Ki [1] [µM] | Ki [5] [µM] | IC50 [2] [µM] | IC50 [3] [µM] | further results
1 | CC(C)=CCCC(C)(O)C1CCC2(C)C1C(O)CC1C3(C)CCC(O)C(C)(C)C3C(OC3OC(CO)C(O)C(O)C3OC3OC(C)C(O)C(O)C3O)CC12C [(20R) ginsenoside Rg2] | Non-competitive | 13.7 ± 0.99 | 29.4 ± 2.33 | 0.83 ± 0.01 ^c mg/g | – | – | – | – | – | – | – | Ki [1, 6]: 11.7 µM; Inhibition (%) of sorbitol accumulation in rat lens [4]: 51.74 ± 2.99 ^c %
2 | CC(C)=CCCC(C)(O)C1CCC2(C)C1C(O)CC1C3(C)CCC(OC4OC(CO)C(O)C(O)C4OC4OC(CO)C(O)C(O)C4O)C(C)(C)C3CCC12C [(20R) ginsenoside Rg3] | Mixed type | – | – | 0.89 ± 0.01 ^c mg/g | 17.99 | Competitive type | 48.2 ± 3.99 | – | – | – | – | Ki ([1]; read-out: HRAR Kic (binding constant of inhibitor with free enzyme), Dixon plots): 11.1 µM; RLAR Mode of Inhibition ([5]; listed as (20R) Rg3): competitive; Ki ([5]; read-out: RLAR Ki, Dixon plots, single inhibition constant): 3.69 µM; IC50 ([2]; read-out: HRAR IC50, substrate DL-glyceraldehyde, mean ± S.E.M. of triplicate experiments): 8.67 ± 0.87 µM; IC50 ([3]; read-out: RLAR IC50, rat lens homogenate, substrate DL-glyceraldehyde, mean ± S.E.M. of triplicate experiments): 4.28 ± 0.31 µM
3 | CC(C)=CCC[C@](C)(O)C1CC[C@]2(C)[C@@H]1[C@H](O)CC1[C@@]3(C)CC[C@H](O[C@@H]4O[C@H](CO)[C@@H](O)[C@H](O)[C@H]4O[C@@H]4O[C@H](CO)[C@@H](O)[C@H](O)[C@H]4O)C(C)(C)C3CC[C@]12C (stereo partly drawn) [(20S) ginsenoside Rg3] | Competitive type | – | – | 0.37 ± 0.01 ^b mg/g | – | Competitive type | 78.5 ± 4.27 | 8.06 | 1.97 | 9.92 ± 0.56 | 1.25 ± 0.28 | RLAR Mode of Inhibition ([5]; listed as (20S) Rg3): competitive
4 | CC(C)=CCC[C@](C)(O[C@@H]1O[C@H](CO)[C@@H](O)[C@H](O)[C@H]1O)C1CC[C@]2(C)[C@@H]1[C@H](O)CC1[C@@]3(C)CC[C@H](O)C(C)(C)C3CC[C@]12C (some centres unmarked) [Compound K] | Competitive type | 2.23 ± 0.54 | 41.5 ± 3.99 | 0.46 ± 0.01 ^b mg/g | – | – | 73.2 ± 8.11 | – | – | – | – | Ki [1, 6]: 1.59 µM; HRAR Mode of Inhibition ([1]; listed as compound K): competitive
5 | CC(C)=CCC[C@](C)(O)[C@H]1CC[C@]2(C)[C@@H]1[C@H](O)C[C@@H]1[C@@]3(C)CC[C@H](O)C(C)(C)[C@@H]3[C@@H](O[C@@H]3O[C@H](CO)[C@@H](O)[C@H](O)[C@H]3O[C@@H]3O[C@H](CO)[C@@H](O)[C@H](O)[C@H]3O)C[C@]12C [Ginsenoside Rf] | – | 19.5 ± 1.55 | 11.3 ± 1.49 | 0.28 ± 0.01 ^a mg/g | – | Mixed type | 83.7 ± 4.88 | – | – | – | – | RLAR Kiu (binding constant of inhibitor with enzyme-substrate complex) ([5]; Dixon plots): 18.60 µM; Ki ([5]; Dixon plots, read-out: RLAR Kic (binding constant of inhibitor with free enzyme)): 11.2 µM
6 | CC(C)=CCC[C@](C)(O)[C@H]1CC[C@]2(C)[C@@H]1[C@H](O)C[C@@H]1[C@@]3(C)CC[C@H](O)C(C)(C)[C@@H]3[C@@H](O[C@@H]3O[C@H](CO)[C@@H](O)[C@H](O)[C@H]3O)C[C@]12C [Ginsenoside Rh1] | Mixed type | – | – | 0.10 ± 0.01 ^a mg/g | 8.31 | Competitive type | – | 3.4 | 5.39 | 4.66 ± 0.34 | 7.28 ± 0.27 | RLAR Mode of Inhibition ([5]; listed as Rh1): competitive; inhibition at 5 µg/mL [4]: 94.2 ± 4.71%
7 | CC(C)=CCC[C@](C)(O)[C@H]1CC[C@]2(C)[C@@H]1[C@H](O)C[C@@H]1[C@@]3(C)CC[C@H](O[C@@H]4O[C@H](CO)[C@@H](O)[C@H](O)[C@H]4O)C(C)(C)[C@@H]3CC[C@]12C [Ginsenoside Rh2] | Mixed type | – | – | 0.05 ± 0.01 ^a mg/g | 9.22 | Competitive type | – | 3.63 | 0.43 | 7.44 ± 0.55 | 0.67 ± 0.01 | RLAR Mode of Inhibition ([5]; listed as Rh2): competitive; inhibition at 5 µg/mL [4]: 97.1 ± 5.41%

From publication PMC9000482, “Inhibition of Aldose Reductase by Ginsenoside Derivatives via a Specific Structure Activity Relationship with Kinetics Mechanism and Molecular Docking Study” (Molecules, 2022)
